Experimental data: US20160130278A1 (TAISHO PHARMACEUTICAL CO., LTD, priority 2013, published 2016)

Biological target: T1, human type 1 glycine transporter (GlyT1) (Homo sapiens, UniProt P48067)
T1 construct: T98G cells (glioma cells) expressing human type 1 glycine transporter (GlyT1) were used
T1 sequence (P48067 1-706): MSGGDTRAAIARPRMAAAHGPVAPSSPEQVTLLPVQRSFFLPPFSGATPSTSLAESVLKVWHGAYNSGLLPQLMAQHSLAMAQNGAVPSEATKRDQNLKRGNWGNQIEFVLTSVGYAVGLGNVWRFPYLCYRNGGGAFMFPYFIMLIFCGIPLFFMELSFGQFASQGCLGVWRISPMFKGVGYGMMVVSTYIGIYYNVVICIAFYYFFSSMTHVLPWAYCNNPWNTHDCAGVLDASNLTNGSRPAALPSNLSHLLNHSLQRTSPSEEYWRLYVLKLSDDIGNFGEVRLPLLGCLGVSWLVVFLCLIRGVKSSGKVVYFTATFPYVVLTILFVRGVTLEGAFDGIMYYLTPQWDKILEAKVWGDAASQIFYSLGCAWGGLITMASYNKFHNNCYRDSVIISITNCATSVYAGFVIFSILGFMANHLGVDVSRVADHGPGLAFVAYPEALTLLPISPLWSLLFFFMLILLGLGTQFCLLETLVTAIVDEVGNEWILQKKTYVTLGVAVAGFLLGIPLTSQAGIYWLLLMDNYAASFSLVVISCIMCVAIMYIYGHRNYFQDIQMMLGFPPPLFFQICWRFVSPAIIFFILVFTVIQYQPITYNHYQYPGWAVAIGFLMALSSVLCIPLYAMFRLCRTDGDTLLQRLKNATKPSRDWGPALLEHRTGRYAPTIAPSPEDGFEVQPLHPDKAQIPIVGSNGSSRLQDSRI
Assay: Glycine uptake inhibition experiment ([3H]glycine uptake)
Format: cell-based
Outline: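 T98G glioma cells expressing human GlyT1 were pretreated 10 min with compound in HEPES buffer pH 7.4 (0.2% BSA), then incubated with compound plus 250 nM final [3H]glycine for 15 min at room temperature. Intracellular radioactivity was counted after NaOH lysis; 10 μM ALX5407 defined non-specific uptake. IC50 came from 10^−9–10^−5 M curves.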

IC50 (GlyT1) [µM]	IC50 (human GlyT1) [µM]	Structure (SMILES)
0.47	–	CCn1cc(-c2cccc(C(NC(=O)c3cccc(Cl)c3Cl)C3(O)CCC(F)(F)CC3)c2)cn1 (stereo not shown) [Compound 119, 2,3-dichloro-N-{(4,4-difluoro-1-hydroxycyclohexyl)[3-(1-ethyl-1H-pyrazol-4-yl)phenyl]methyl}benzamide]
–	0.17	CS(=O)(=O)c1ncc(C(F)(F)F)cc1C(=O)NC(c1ccccc1Cl)C1(O)CCC(F)(F)CC1 (single isomer, unassigned) [Compound 404, N-[(2-chlorophenyl)(4,4-difluoro-1-hydroxycyclohexyl)methyl]-2-(methylsulfonyl)-5-(trifluoromethyl)pyridine-3-carboxamide]
0.0085	–	CCn1cc(-c2cccc(C(NC(=O)c3nccc(C(F)(F)F)c3Cl)C3(O)CCCCC3)c2)cn1 (stereo not shown) [Compound 15, 3-chloro-N-{[3-(1-ethyl-1H-pyrazol-4-yl)phenyl](1-hydroxycyclohexyl)methyl}-4-(trifluoromethyl)pyridine-2-carboxamide]
0.99	–	Cc1noc2nc(C3CC3)cc(C(=O)NC(c3cccc(F)c3Cl)[C@]3(O)CC[C@@H](F)CC3)c12 (single isomer, unassigned) [Compound 263, N-[(2-chloro-3-fluorophenyl)(cis-4-fluoro-1-hydroxycyclohexyl)methyl]-6-cyclopropyl-3-methyl[1,2]oxazolo[5,4-b]pyridine-4-carboxamide]
0.49	–	O=C(NC(c1cc(Cl)ccn1)C1(O)CCC(F)(F)CC1)c1cc(C(F)(F)F)ncc1Cl (single isomer, unassigned) [Compound 348, 5-chloro-N-[(4-chloropyridin-2-yl)(4,4-difluoro-1-hydroxycyclohexyl)methyl]-2-(trifluoromethyl)pyridine-4-carboxamide]
0.27	–	O=C(NC(c1cc(Cl)ccn1)C1(O)CCC(F)(F)CC1)c1nccc(C(F)(F)F)c1Cl (single isomer, unassigned) [Compound 345, 3-chloro-N-[(4-chloropyridin-2-yl)(4,4-difluoro-1-hydroxycyclohexyl)methyl]-4-(trifluoromethyl)pyridine-2-carboxamide]
0.36	–	O=C(NC(c1cccc(-c2cccnc2)c1)C1(O)CCCC1)c1cccc(C(F)(F)F)c1Cl (stereo not shown) [Compound 3, 2-chloro-N-{(1-hydroxycyclopentyl)[3-(pyridin-3-yl)phenyl]methyl}-3-(trifluoromethyl)benzamide]
3.7	–	O=C(NC(c1cccc(Cl)c1Cl)C1(O)CCC(F)(F)CC1)c1nccc(C(F)(F)F)c1Cl (single isomer, unassigned) [Compound 136, 3-chloro-N-[(2,3-dichlorophenyl)(4,4-difluoro-1-hydroxycyclohexyl)methyl]-4-(trifluoromethyl)pyridine-2-carboxamide]
0.21	–	CCn1cc(-c2cccc(C(NC(=O)c3cc(C(F)(F)F)ccc3Cl)C3(O)CCC(F)(F)CC3)c2)cn1 (stereo not shown) [Compound 180, 2-chloro-N-{(4,4-difluoro-1-hydroxycyclohexyl)[3-(1-ethyl-1H-pyrazol-4-yl)phenyl]methyl}-5-(trifluoromethyl)benzamide]
–	0.45	CS(=O)(=O)c1cc(C(F)(F)F)ccc1C(=O)NC(c1cccc(Cl)c1F)C1(O)CCC(F)(F)CC1 (single isomer, unassigned) [Compound 402, N-[(3-chloro-2-fluorophenyl)(4,4-difluoro-1-hydroxycyclohexyl)methyl]-2-(methylsulfonyl)-4-(trifluoromethyl)benzamide]
0.39	–	O=C(NC(c1ccc(F)c(Cl)c1)[C@]1(O)CC[C@@H](F)CC1)c1nccc(C(F)(F)F)c1Cl (single isomer, unassigned) [Compound 225, 3-chloro-N-[(3-chloro-4-fluorophenyl)(cis-4-fluoro-1-hydroxycyclohexyl)methyl]-4-(trifluoromethyl)pyridine-2-carboxamide]
1.2	–	O=C(NC(c1cccc(F)c1)C1(O)CCC(F)(F)CC1)c1nccc(C(F)(F)F)c1Cl (single isomer, unassigned) [Compound 77, 3-chloro-N-[(4,4-difluoro-1-hydroxycyclohexyl)(3-fluorophenyl)methyl]-4-(trifluoromethyl)pyridine-2-carboxamide]
0.41	–	O=C(NC(c1cccc(Br)c1)C1(O)CC=CCC1)c1nccc(C(F)(F)F)c1Cl (stereo not shown) [Compound 142, N-[(3-bromophenyl)(1-hydroxycyclohex-3-en-1-yl)methyl]-3-chloro-4-(trifluoromethyl)pyridine-2-carboxamide]
1.7	–	Cn1nc2c(c1C(=O)NC(c1cccc(F)c1Cl)[C@]1(O)CC[C@@H](F)CC1)CCCC2 (single isomer, unassigned) [Compound 260, N-[(2-chloro-3-fluorophenyl)(cis-4-fluoro-1-hydroxycyclohexyl)methyl]-2-methyl-4,5,6,7-tetrahydro-2H-indazol-3-carboxamide]
0.12	–	O=C(N[C@@H](c1cccc(F)c1)C1(O)CCC(F)(F)CC1)c1nccc(C(F)(F)F)c1Cl (single isomer, unassigned) [Compound 233, 3-chloro-N-[(4,4-difluoro-1-hydroxycyclohexyl)(3-fluorophenyl)methyl]-4-(trifluoromethyl)pyridine-2-carboxamide]
0.2	–	O=C(NC(c1ccccc1Cl)[C@]1(O)CC[C@H](F)CC1)c1nccc(C(F)(F)F)c1Cl (single isomer, unassigned) [Compound 198, 3-chloro-N-[(2-chlorophenyl)(trans-4-fluoro-1-hydroxycyclohexyl)methyl]-4-(trifluoromethyl)pyridine-2-carboxamide]
0.27	–	O=C(NC(c1ccc(F)c(Cl)c1)C1(O)CCCC1)c1nccc(C(F)(F)F)c1Cl (single isomer, unassigned) [Compound 97, 3-chloro-N-[(3-chloro-4-fluorophenyl)(1-hydroxycyclopentyl)methyl]-4-(trifluoromethyl)pyridine-2-carboxamide]
3.8	–	Cc1ccc(C(NC(=O)c2nccc(C(F)(F)F)c2Cl)C2(O)CCCC2)cc1 (stereo not shown) [Compound 49, 3-chloro-N-[(1-hydroxycyclopentyl)(4-methylphenyl)methyl]-4-(trifluoromethyl)pyridine-2-carboxamide]
1.5	–	CCn1cc(-c2cccc(C(NC(=O)c3cccc(C(F)(F)F)c3F)C3(O)CCC(F)(F)CC3)c2)cn1 (stereo not shown) [Compound 181, N-[(4,4-difluoro-1-hydroxycyclohexyl)[3-(1-ethyl-1H-pyrazol-4-yl)phenyl]methyl}-2-fluoro-3-(trifluoromethyl)benzamide]
0.037	–	O=C(NC(c1cccc(F)c1Cl)[C@]1(O)CC[C@@H](F)CC1)c1nccc(C(F)(F)F)c1Cl (single isomer, unassigned) [Compound 213, 3-chloro-N-[(2-chloro-3-fluorophenyl)(cis-4-fluoro-1-hydroxycyclohexyl)methyl]-4-(trifluoromethyl)pyridine-2-carboxamide]
0.76	–	CCn1cc(-c2cccc(C(NC(=O)c3cc(Cl)ccc3Cl)C3(O)CCC(F)(F)CC3)c2)cn1 (single isomer, unassigned) [Compound 194, 2,5-dichloro-N-{(4,4-difluoro-1-hydroxycyclohexyl)[3-(1-ethyl-1H-pyrazol-4-yl)phenyl]methyl}benzamide]
0.74	–	CCn1cc(-c2cccc(C(NC(=O)c3c(C)cccc3C)C3(O)CCC(F)(F)CC3)c2)cn1 (stereo not shown) [Compound 120, N{(4,4-difluoro-1-hydroxycyclohexyl)[3-(1-ethyl-1H-pyrazol-4-yl)phenyl]methyl}-2,6-dimethylbenzamide]
